Source: US9953129B2, “Patient stratification and determining clinical outcome for cancer patients” (Agency for Science, Technology and Research, priority 2011, dated 2018)

Key:
Type in all cases: cell-based
[1] = system: NBT-II cells; test: EMT spot migration assay, EGF induced EMT; conditions: for IC50: EMT induced by EGF (20 ng/mL), NBT-II cells, read-out: Cell Dispersion IC50 (nM) EGF
Description: (§1) Stably transfected mcherry fluorescence-labeled NET-II cells are maintained in DMEM supplemented with 10% fetal bovine serum (FBS, Thermo Scientific), 1 μg/mL puromycin (Sigma), 100 units/mL penicillin−100 units/mL streptomycin (1×pen-strep, Invitrogen) and 2 mM L-glutamine (Invitrogen).
(§2) Test compounds were purchased from various vendors (Selleck Chemicals, Sigma Aldrich, SYN|thesis Med Chem, and Tocris Bioscience). For screening studies, test compounds at both 0.25 mM and 1.0 mM concentrations in DMSO are prepared, each occupying a single well in columns 2 to 11 of 96-well V-bottom plates (Greiner). For dose response studies, selected test compounds were prepared in duplicate wells and serial diluted in DMSO, starting a 1.0 mM concentration. Compound stock plates were stored at −20° C. and thawed at room temperature before use.
(§3) A schematic for the spot migration assay is illustrated in FIG. 2. Cells were grown up to 80% confluency in tissue culture flasks prior to cell plating. Cells were first trypsinized, concentrated and re-suspended to a density of 5×10^6 cell/mL in CO2 independent medium (Invitrogen) supplemented with 10% FBS. The cell suspension was then evenly aliquoted into the wells of 2 columns of a 96-well V-bottom plate. Using a robotic liquid handling station (Bravo, Agilent Technologies), 0.5 μL of cell suspension was transferred from the 2 columns of the cell suspension-loaded plate and deposited into the center of the wells of 2 columns of a 96-well clear bottom, black assay plate (Corning). This process was repeated six times so that all 96 wells of the assay plate were deposited with a cell suspension spot. The plate was then sealed to minimize evaporation of the cell suspension spots and transferred to a 37° C., 5% CO2 incubator to allow for cells to attach to the culture surface. After one hour, the plate was gently washed with medium once to remove unattached cells, refreshed with 100 μL assay medium (DMEM supplemented with 10% FBS, 1× pen-strep and 2 mM L-glutamine), and then further incubated to allow for cell-cell contacts to establish in the cell colonies.
Four tiled, non-overlapping images were acquired around the center of each well, which were then stitched together during image analysis to generate a montage covering an area of 3.2 mm×3.2 mm. These images (T1) represent the initial state of the cell colonies before EMT induction.
After the T1 images are acquired, 1 μL of test compounds were transferred from compound stock plates and added to the assay plates. […] The cultures were then further incubated overnight.
The next day, 50 μL of growth factor containing medium was added each well of the assay plates. For each of the EGF, HGF or IGF-1 induced EMT spot migration assays, the final growth factor concentrations was adjusted in each well to be 20 ng/mL EGF (Sigma), 4 ng/mL HGF (Calbiochem) or 150 ng/mL IGF-1 (R&D Systems), respectively. The cultures were then incubated for another 24 hours, to allow for EMT and sufficient cell motility/dispersion to occur in the cell colonies.
Finally, the cell colonies were imaged again using the confocal microplate imager as described above. These images (T2) represent the final state of the cell colonies after compound treatment and EMT induction. The acquired T1 and T2 image sets for each assay plate were then subjected to image analysis.
Acquired image sets were loaded into image analysis routine developed using Metamorph software. Briefly, a complete image of the entire cell colony in a well was first obtained by stitching the four tiled, non-overlapping images together. Image analysis consists of counting the cell number and measuring the area occupied by the cells. The positive nuclei were segmented using a wavelet decomposition scheme to remove the photonic noise and the inhomogeneous background. A watershed procedure was used to refine the result by separating the confluent nuclei.

[2] = system: NBT-II cells; test: EMT spot migration assay, HGF induced EMT; conditions: EMT induced by HGF (4 ng/mL), read-out: Cell Dispersion IC50 (nM) HGF
Description: as §1, §2, §3
After 4 hours of incubation, the cell colonies for each well were imaged using a confocal microplate imager (MetaXpress Ultra, Molecular Devices) with 10× Plan Fluor objective, 561 nm laser excitation and 593/40 nm emission filter configuration. Four tiled, non-overlapping images were acquired around the center of each well, which were then stitched together during image analysis to generate a montage covering an area of 3.2 mm×3.2 mm. These images (T1) represent the initial state of the cell colonies before EMT induction.
After the T1 images are acquired, 1 μL of test compounds were transferred from compound stock plates and added to the assay plates. […]

[3] = system: SKOV3 cells; test: EMT reversal assay (morphology, Western blot) in SKOV3; conditions: SKOV3, 2 μM for 3 days
Description: (§4) SKOV3, HEY and OVCAR-2 cells were maintained in RPMI (Invitrogen) supplemented with 10% fetal bovine serum (FBS, Thermo Scientific), 1 μg/mL puromycin (Sigma), 100 units/mL penicillin−100 units/mL streptomycin (1× pen-strep, Invitrogen) and 2 mM L-glutamine (Invitrogen). AZD0530 and BIBF-1120 were purchased from Selleck Chemicals and SYN|thesis Med Chem respectively. DMSO was used as a vehicle to dissolve both compounds. A stock concentration of 10 mM was prepared for both compounds and stored at −20° C. and aliquots were thawed at room temperature before use. Cells were grown up to 80% confluency in tissue culture flasks prior to cell plating. Cells were first trypsinized, concentrated and re-suspended to a density of 1×10^6 cell/mL in RPMI supplemented with 10% FBS. For each cell lines, 1×10^5 cells were plated onto 100 mm cell culture treated dishes (Nunc) for each condition. The cells were then allowed to attach to the culture dish surface and grow overnight in 37° C., 5% CO2 incubator. In drug conditions, the cells were then incubated with each of the compounds at a final concentration of 2 μM for 3 days to allow cell-cell contacts to establish in the dispersed culture. The medium was aspirated from the culture dishes and the cells were washed with PBS Ca^2+, Mg^2+ before they were snap-frozen with liquid nitrogen. Cells were lysed with RIPA buffer (Sigma) supplemented with protease inhibitor cocktail (Calbiochem) and phosphatase inhibitor cocktail (Roche). Protein concentration was measured using BCA (Pierce) protocol provided by the manufacturer. 8% polyacrylamide gels were used for the separation of proteins and transferred to PDVF membranes (Millipore). Membranes were blocked in 5% non-fat milk (Bio-rad) and incubated at 4 degree Celsius overnight with primary antibodies. E-cadherin antibody was purchased from BD laboratories, MMP13 antibody was purchased from Millipore and Tubulin was purchased from Sigma. […] The raw intensity of the protein bands were quantified using GeneTools software (Syngene).

[4] = system: HEY cells; test: EMT reversal assay (morphology, Western blot) in HEY; conditions: 2 μM for 3 days
Description: as §4

[5] = system: OVCAR-2 cells; test: EMT reversal assay (morphology, Western blot) in OVCAR-2; conditions: OVCAR-2, 2 μM for 3 days
Description: as §4

[6] = system: NBT-II cells; test: EMT spot migration assay, IGF-1 induced EMT; conditions: EMT induced by IGF-1 (150 ng/mL), read-out: Cell Dispersion IC50 (nM) IGF-1
Description: as §1, §2
as §3, with “After one hour, the plate was gently washed with medium once to remove unattached cells, refreshed with 100 μL assay medium (DMEM supplemented with 10% FBS, 1× pen-strep and 2 mM L-glutamine), and then further incubated to allow for cell-cell contacts to establish in the cell colonies.” left out

| SMILES | IC50 [1] | IC50 [2] | IC50 [6] | also measured |
| --- | --- | --- | --- | --- |
| CS(=O)(=O)N1CCN(Cc2cc3nc(-c4cccc5[nH]ncc45)nc(N4CCOCC4)c3s2)CC1 [GDC-0941] | – | – | 490 nM | – |
| Cn1cc(-c2ccc3nnc(C(F)(F)c4ccc5ncccc5c4)n3n2)cn1 [JNJ.38877605] | – | 43 nM | – | – |
| S=C(NCc1ccc2c(c1)OCO2)N1CCN(c2ncnc3c2oc2ccccc23)CC1 [MP-470] | 510 nM | 970 nM | 580 nM | – |
| Cc1ccc(-c2nn(C(C)(C)C)c3ncnc(N)c23)cc1 [PP 1] | 1720 nM | – | – | – |

More lines, main results first:

| IC50 [1] | IC50 [2] | IC50 [6] | SMILES | also measured |
| --- | --- | --- | --- | --- |
| 350 nM | – | – | COc1cc2ncnc(Nc3cccc(Cl)c3)c2cc1OC [AG 1478] | Cell Dispersion ratio ([1]; PosCtrl condition: [AG1478]=6.67 microM and [EGF]=20 ng/mL, NegCtrl 2.50±0.12): 1.48±0.05 |
| 565 nM | 650 nM | – | CN1CCN(CCOc2cc(OC3CCOCC3)c3c(Nc4c(Cl)ccc5c4OCO5)ncnc3c2)CC1 [AZD 0530] | Morphology after treatment ([3]; vs DMSO): restored the epithelioid-like morphology; E-cadherin protein levels (Western blot) ([3]; vs vehicle): greater increase; MMP13 protein levels (Western blot) ([3]; vs vehicle): greater reduction; Morphology after treatment ([4]; vs DMSO): restored the epithelioid-like morphology; E-cadherin protein levels (Western blot) ([4]; vs vehicle): greater increase; MMP13 protein levels (Western blot) ([4]; vs vehicle): greater reduction; Morphology after treatment ([5]; vs DMSO): formed tighter cobblestone-like cell colonies; E-cadherin protein levels (Western blot) ([5]; vs vehicle): increased; MMP13 protein levels (Western blot) ([5]; vs vehicle): reduced |
| – | 471 nM | 534 nM | Cn1cnc2c(F)c(Nc3ccc(Br)cc3Cl)c(C(=O)NOCCO)cc21 [AZD 6244] | – |
| 6600 nM | – | – | Cc1cc(N2CCOCC2)cc2[nH]c(-c3c(NC[C@@H](O)c4cccc(Cl)c4)cc[nH]c3=O)nc12 [BMS 536924] | – |
| 590 nM | – | – | COc1cc2ncnc(Nc3ccc(O)c(Br)c3)c2cc1OC [WHI-P 154] | – |
